Source: patent US20030100479A1, “Gene polymorphisms and response to treatment” (priority 2001, published 2003)
“Also recorded” adds a separate entry of the source.

Legend:
Type in all cases: in vivo, human
[1] = Clinical trial of GW320659: change in supine diastolic blood pressure (time-adjusted AUC), by genotype
From the text: (§1) Using genotyping methods as are well known in the art, genetic data were obtained from approximately 200 of more than 500 human subjects enrolled in a dose-ranging efficacy and safety study of GW320659 for weight loss (main study group; a randomized, double-blind, placebo controlled, dose-ranging clinical trial); GW320659 was used in conjunction with a mildly hypocaloric diet and brief weight management guidance. Subjects were between the ages of 18-65 years, with a Body Mass Index (BMI) of 30-40, and were not on any psychotropic medications or other anti-obesity medications. Subjects were randomized into one of five treatment groups: placebo or GW320659 at 2.5 mg/day, 5 mg/day, 10 mg/day, or 15 mg/day (oral administration). In the main study group, for the GW320659 15 mg/day dosage, average weight loss was approximately 3.7 kg (108 subjects; data not shown).
(§2) Subjects were assessed for various parameters, including absolute change in body weight from week 0 to week 24 of the study; supine heart rate, diastolic blood pressure and systolic blood pressure at multiple predetermined time-points across the study; and change in Food Craving Inventory (Total) score from week 0 to week 24.
(§3) Analyses of changes in cardiovascular endpoints (HR, SBP, DBP, all measured in supine subjects) were conducted individually for each of the polymorphic sites, and analyzed as follows. Vital sign assessments at all post-baseline visits were analyzed utilizing a repeated measures (mixed) ANOVA model. Genotype by treatment interactions were assessed. The following model was used.
(§4) If the treatment by time interaction was non-significant, the corresponding term was planned to be removed from the model, prior to assessing treatment by genotype interaction. Subsequently, this term was removed for all vital signs analyses. In addition, vital signs data was analyzed utilizing a time-weighted area under the curve (adjusted for baseline) analysis. Model #2 (used for the efficacy analyses) was employed for these analyses.
(§5) Supine heart rate (HR), supine systolic blood pressure (SBP) and supine diastolic blood pressure (DBP) were assessed at various fixed intervals across the duration of the study. Summaries and analyses were conducted on the “area under the curve” (AUC) values (adjusted for time on study and baseline). All reported p-values in this section refer to AUC analyses, using Model No.2 as described above.
Accordingly, for some recursive partioning analysis the treatment groups were split in this manner (15 mg versus all other groups). The p-value threshold was set 0.10 (the minimum level necessary to get further automatic splits). The software then determined the remaining splits for the 15 mg group. […]

[2] = Clinical trial of GW320659: change in supine heart rate (time-adjusted AUC), by genotype; set-up: Change in Heart Rate, Mean / Heart Rate (mean time adusted change): unit not given here
From the text: as §1, §2, §3, §4
The multilocus genotypes from each individual were used to enumerate all possible haplotypes. These haplotypes were assigned starting frequencies. The haplotype frequencies were updated with frequencies calculated from all the possible haplotypes from each individual in the sample. This continued until the frequencies were constant from iteration to iteration.
Regression-based models were used to relate inferred haplotype probabilities for each individual with the continuous response.
as §5
As in Food Craving Inventory (Example 6, above), manual splits were created by treatment dose (placebo, 2.5+5 mg, and 10+15 mg). The p-value threshold was then set at 0.10 (the minimum level necessary to get further automatic splits). The software then determined the remaining splits for the 10+15 mg group. The splits found in the 10+15 mg group were then manually duplicated for the lower dose groups (for comparison purposes).

[3] = Clinical trial of GW320659: change in supine systolic blood pressure (time-adjusted AUC), by genotype
From the text: as §1, with “Subjects were randomized into one of five treatment groups: placebo or GW320659 at 2.5 mg/day, 5 mg/day, 10 mg/day, or 15 mg/day (oral administration). In the main study group, for the GW320659 15 mg/day dosage, average weight loss was approximately 3.7 kg (108 subjects; data not shown).” left out
as §2
as §3, with “The following model was used.” left out

[4] = NET1 T342C (2,2) and without DRD2 C12121T (2,2), 10 mg/day or 15 mg/day
[5] = subgroup 2,2 for NET1T342C and/or NET1G155A and/or NR1G6435A, 10 mg and 15 mg combined
[6] = subgroup 2,2 for NET1T342C and/or NET1G155A and/or NR1G6435A, 10 mg/day+15 mg/day, not significantly different from placebo
[7] = subgroup 2/2 NET1T342C and/or 2/2 NET1G155A and/or 2/2 NR1G6435A, 10 mg/day+15 mg/day, 26 subjects

## C[C@@H]1CO[C@@](O)(c2cc(F)cc(F)c2)[C@H](C)N1.Cl [GW320659, (2S,3S,5R)-2-(3,5-difluorophenyl)-3,5-dimethyl-2-morpholinol]
[1]; [4]
  Changes in diastolic blood pressure compared to subjects with alternate genotypes: decreased changes in heart rate and blood pressure; also recorded: comparatively small changes in HR, SBP and DBP
[1]; [5]
  Mean rise in DBP: 2.4 mmHG
[1]; [6]
  Overall mean time-adjusted change in Diastolic Blood Pressure, mean rise: 2.4 mm Hg
[1]; [7]
  Diastolic Blood Pressure (mean time adjusted change): 2.431
[2]; DRD2 C12121T (2′,2) and MAOBG644A (1,1) genotypes, 10 mg/day or 15 mg/day
  Increase in heart rate compared to subjects with alternate genotypes: larger increase in heart rate
[2]; [4]
  Changes in heart rate compared to subjects with alternate genotypes: decreased changes in heart rate and blood pressure; also recorded: comparatively small changes in HR, SBP and DBP
[2]; haplotype 1,1 5HTTC867T 5HTTT3287C, All Ethnicities, 10 and 15 mg combined (Table 6)
  Change in Heart Rate, Mean: 3.5075
[2]; haplotype 1,1 5HTTC867T 5HTTT3287C, Caucasians, 10 and 15 mg combined (Table 7)
  Change in Heart Rate, Mean: 3.811
[2]; haplotype 1,1 5HTTDel-Ins 5HTTC867T, All Ethnicities, 10 and 15 mg combined (Table 6)
  Change in Heart Rate, Mean: 4.2
[2]; haplotype 1,1 5HTTDel-Ins 5HTTC867T, Caucasians, 10 and 15 mg combined (Table 7)
  Change in Heart Rate, Mean: 4.077
[2]; haplotype 1,1,1 5HTTDel-Ins 5HTTC867T 5HTT3287C, All Ethnicities, 10 and 15 mg combined (Table 6)
  Change in Heart Rate, Mean: 5.48
[2]; haplotype 1,1,1 5HTTDel-Ins 5HTTC867T 5HTT3287C, Caucasians, 10 and 15 mg combined (Table 7)
  Change in Heart Rate, Mean: 5.69
[2]; haplotype 1,1,2 5HTTDel-Ins 5HTTC867T 5HTT3287C, All Ethnicities, 10 and 15 mg combined (Table 6)
  Change in Heart Rate, Mean: −0.6849
[2]; haplotype 1,1,2 5HTTDel-Ins 5HTTC867T 5HTT3287C, Caucasians, 10 and 15 mg combined (Table 7)
  Change in Heart Rate, Mean: −0.8345
[2]; haplotype 1,2 5HTTC867T 5HTTT3287C, All Ethnicities, 10 and 15 mg combined (Table 6)
  Change in Heart Rate, Mean: −0.6851
[2]; haplotype 1,2 5HTTC867T 5HTTT3287C, Caucasians, 10 and 15 mg combined (Table 7)
  Change in Heart Rate, Mean: −0.8347
[2]; haplotype 1,2 5HTTDel-Ins 5HTTC867T, All Ethnicities, 10 and 15 mg combined (Table 6)
  Change in Heart Rate, Mean: 6.424
[2]; haplotype 1,2 5HTTDel-Ins 5HTTC867T, Caucasians, 10 and 15 mg combined (Table 7)
  Change in Heart Rate, Mean: 6.807
[2]; haplotype 1,2,1 5HTTDel-Ins 5HTTC867T 5HTT3287C, All Ethnicities, 10 and 15 mg combined (Table 6)
  Change in Heart Rate, Mean: 6.404
[2]; haplotype 1,2,1 5HTTDel-Ins 5HTTC867T 5HTT3287C, Caucasians, 10 and 15 mg combined (Table 7)
  Change in Heart Rate, Mean: 6.808
[2]; haplotype 2,1 5HTTC867T 5HTTT3287C, All Ethnicities, 10 and 15 mg combined (Table 6)
  Change in Heart Rate, Mean: 5.565
[2]; haplotype 2,1 5HTTC867T 5HTTT3287C, Caucasians, 10 and 15 mg combined (Table 7)
  Change in Heart Rate, Mean: 5.827
[2]; haplotype 2,1 5HTTDel-Ins 5HTTC867T, All Ethnicities, 10 and 15 mg combined (Table 6)
  Change in Heart Rate, Mean: 2.183
[2]; haplotype 2,1 5HTTDel-Ins 5HTTC867T, Caucasians, 10 and 15 mg combined (Table 7)
  Change in Heart Rate, Mean: 3.034
[2]; haplotype 2,1,1 5HTTDel-Ins 5HTTC867T 5HTT3287C, All Ethnicities, 10 and 15 mg combined (Table 6)
  Change in Heart Rate, Mean: 2.256
[2]; haplotype 2,1,1 5HTTDel-Ins 5HTTC867T 5HTT3287C, Caucasians, 10 and 15 mg combined (Table 7)
  Change in Heart Rate, Mean: 3.11
[2]; haplotype 2,2 5HTTDel-Ins 5HTTC867T, All Ethnicities, 10 and 15 mg combined (Table 6)
  Change in Heart Rate, Mean: 4.879
[2]; haplotype 2,2 5HTTDel-Ins 5HTTC867T, Caucasians, 10 and 15 mg combined (Table 7)
  Change in Heart Rate, Mean: 5.085
[2]; haplotype 2,2,1 5HTTDel-Ins 5HTTC867T 5HTT3287C, All Ethnicities, 10 and 15 mg combined (Table 6)
  Change in Heart Rate, Mean: 4.782
[2]; haplotype 2,2,1 5HTTDel-Ins 5HTTC867T 5HTT3287C, Caucasians, 10 and 15 mg combined (Table 7)
  Change in Heart Rate, Mean: 4.92
[2]; [5]
  Mean rise in HR: 4.7 bpm
[2]; [6]
  Overall mean time-adjusted change in Heart Rate, mean rise: 4.7 beats per minute
[2]; [7]
  Heart Rate (mean time adusted change): 4.666
[2]; subgroup DRD2 C12121T (1,1) and MAOB G644A (1,1), 10 mg and 15 mg dosing
  Mean change in HR: 13 bpm
[2]; subgroup DRD2C12121T=2,2 and MAOBG644A=1,1, 10 mg/day+15 mg/day
  Overall mean time-adjusted change in Heart Rate, mean increase: 13 beats per minute
[3]; [4]
  Changes in systolic blood pressure compared to subjects with alternate genotypes: decreased changes in heart rate and blood pressure; also recorded: comparatively small changes in HR, SBP and DBP
[3]; [7]
  Systolic Blood Pressure (mean time adjusted change): 0.9733
